Here are results for one molecule from patent US20080249168A1, “Pharmaceutical composition for gout” (priority 2007, published 2008).

Entries after “also recorded” stand apart in the source; their conditions may differ.

For assay [1], the system named is hyperuricemia model of Kunmin mouse. The experiment in a line: Influence of l-carnitine on serum uric acid in hyperuricemia model of Kunmin mouse (oteracil potassium as inducer). Type of assay: in vivo. The note with it: for serum uric acid value (X ± S): peritoneal injection, blood one hour after injection of inducer, P < 0.01 vs negative control. On the procedure:
(§1) Fifty healthy kunmin Mouse (weight of 18-22 grams, male) were randomly divided into 5 groups, which are positive control group, negative control group, and small (250 mg/kg), medium (500 mg/kg) and large (1000 mg/kg) doses of 1-carnitine groups. The solvent for all solutions is 0.5% of sodium carboxymethyl cellulose (CMC—Na), with peritoneal injection in dose of 0.1 ml/10 g for all animals. For […], same dose of 0.5% of CMC—Na solution was injected. One hour after injection of inducer, blood samples were taken from eyeball, stet at room temperature for about one hour, centrifugation at 4000 r.p.m for 10 mins, supernatant was transferred to fresh tube for biochemical test of serum uric acid.
The efficacy of the composition described in the present invention is clearly shown in Example 1, where uricase inhibitor oteracil potassium is used as model inducer to induce hyperuricemia in Kunmin mouse, and administered Levocarnitine to observe novel pharmacological effect on the model.

The test system of a further assay is normal kunmin mice. The assay is described as follows: Influence of L-carnitine on serum uric acid level in normal Kunmin mouse. Type of assay: in vivo. The conditions noted are these: 300 mg/kg. On the procedure:
as §1, with “acid. Thirty healthy kunmin mouse (weight of 18-22 grams, male) were randomly divided into 3 groups, which are positive control group, negative control group, and 1-carnitine (300 mg/k) group. Others method was same as example 1.” for “acid.”

Regarding `C[N+](C)(C)C[C@H](O)CC(=O)[O-]` [L-Carnitine, Levocarnitine (L-carnitine)], the “serum uric acid value (X ± S)” value in assay [1] (250 mg/kg (small dose)) came out at 140.6 ± 51.55; in assay [1] (500 mg/kg (medium dose)), 130.1 ± 34.8; in assay [1] (1000 mg/kg (large dose)) it was 131.7 ± 24.79; in the assay on normal kunmin mice (P > 0.05 vs normal positive control group), 76.9 ± 30.77. Further, in assay [1] (dose 250-1000 mg/kg), the “effect on serum uric acid level (in words)” value is “reduced serum uric acid level of model animal group significantly; also recorded: reduced the uric acid level significantly”. The “effect on uric acid level (in words)” value with normal kunmin mice is reported as “no effect on uric acid level”; in the assay with normal kunmin mice (listed as 1-carnitine), “not affecting uric acid level”.
